Assay results reported in PubChem BioAssay AID248 (DTP/NCI, 2004).
Several values for one entry are separate records, joined by “and”; a condition that tells them apart may be missing. Equal entries are not always repeated. Toxic doses and inconclusive results are not listed.

Test system: L1210 leukemia ip in BDF1 mice, survival T/C
Assay: NCI In Vivo Anticancer Drug Screen. Data for tumor model L1210 Leukemia (intraperitoneal) in B6D2F1 (BDF1) mice
Settings: endpoint: mean survival time, higher = longer survival
Outline: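 Tumor was transplanted into mice, which were then dosed with test compound or vehicle alone. Survival was recorded for each group, and the treated figure was expressed relative to the control figure.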

O[C@H](CN1CC1)[C@@H](O)CN1CC1
T/C (dose: 0.05 mg/kg/injection, schedule: Q01DX010 (oral), vehicle: other): 114 % of control
T/C (dose: 0.05 mg/kg/injection, schedule: Q01DX010 (oral), vehicle: saline): 111 % of control
T/C (dose: 0.05 mg/kg/injection, schedule: Q01DX Z (ip), vehicle: methylcellulose (MC)): 154 % of control
T/C (dose: 0.1 mg/kg/injection, schedule: Q01DX010 (oral), vehicle: saline): 118 % of control
T/C (dose: 0.1 mg/kg/injection, schedule: Q01DX Z (ip), vehicle: methylcellulose (MC)): 87 % of control
T/C (dose: 0.1 mg/kg/injection, schedule: Q01DX Z (oral), vehicle: saline): 101 % of control
T/C (dose: 0.13 mg/kg/injection, schedule: Q01DX009 (ip), vehicle: saline): 187 % of control and 192 % of control
T/C (dose: 0.2 mg/kg/injection, schedule: Q01DX010 (oral), vehicle: other): 157 % of control
T/C (dose: 0.25 mg/kg/injection, schedule: Q01DX009 (ip), vehicle: saline): 204 % of control and 206 % of control
T/C (dose: 0.3 mg/kg/injection, schedule: Q01DX Z (oral), vehicle: saline): 111 % of control
T/C (dose: 0.4 mg/kg/injection, schedule: Q01DX010 (oral), vehicle: saline): 164 % of control
T/C (dose: 0.44 mg/kg/injection, schedule: Q01DX Z (oral), vehicle: saline): 172 % of control
T/C (dose: 0.5 mg/kg/injection, schedule: Q01DX009 (ip), vehicle: saline): 221 % of control and 257 % of control
T/C (dose: 0.66 mg/kg/injection, schedule: Q01DX Z (oral), vehicle: saline): 182 % of control
T/C (dose: 0.8 mg/kg/injection, schedule: Q01DX010 (oral), vehicle: other): 88 % of control
T/C (dose: 0.8 mg/kg/injection, schedule: Q01DX010 (oral), vehicle: saline): 108 % of control
T/C (dose: 1.0 mg/kg/injection, schedule: Q01DX009 (ip), vehicle: saline): 104 % of control and 88 % of control
T/C (dose: 1.0 mg/kg/injection, schedule: Q01DX Z (ip), vehicle: methylcellulose (MC)): 121 % of control
T/C (dose: 1.0 mg/kg/injection, schedule: Q01DX Z (oral), vehicle: saline): 122 % of control
T/C (dose: 1.5 mg/kg/injection, schedule: Q01DX Z (oral), vehicle: saline): 97 % of control

O=C(CCl)NCC(NC(=O)CCl)C(=O)O (configuration not stated)
T/C (dose: 100.0 mg/kg/injection, schedule: Q04DX002 (ip), vehicle: saline): 115 % of control
T/C (dose: 200.0 mg/kg/injection, schedule: Q04DX002 (ip), vehicle: saline): 105 % of control
T/C (dose: 400.0 mg/kg/injection, schedule: Q04DX002 (ip), vehicle: saline): 112 % of control

COc1ccc(-c2ccc(C(C)=O)cc2)cc1
T/C (dose: 100.0 mg/kg/injection, schedule: Q04DX002 (ip), vehicle: Klucel (hydroxypropylcellulose) (HPC)): 90 % of control
T/C (dose: 200.0 mg/kg/injection, schedule: Q04DX002 (ip), vehicle: Klucel (hydroxypropylcellulose) (HPC)): 100 % of control
T/C (dose: 400.0 mg/kg/injection, schedule: Q04DX002 (ip), vehicle: Klucel (hydroxypropylcellulose) (HPC)): 100 % of control

OCCN1CCN(CC/C=C2/c3ccccc3Sc3ccc(C(F)(F)F)cc32)CC1
T/C (dose: 0.78 mg/kg/injection, schedule: Q03HX024 (ip), vehicle: saline): 94 % of control
T/C (dose: 1.56 mg/kg/injection, schedule: Q03HX024 (ip), vehicle: saline): 103 % of control
T/C (dose: 2.0 mg/kg/injection, schedule: Q01DX009 (ip), vehicle: saline): 89 % of control
T/C (dose: 2.5 mg/kg/injection, schedule: Q01DX009 (ip), vehicle: saline): 114 % of control
T/C (dose: 3.12 mg/kg/injection, schedule: Q03HX024 (ip), vehicle: saline): 105 % of control
T/C (dose: 4.0 mg/kg/injection, schedule: Q01DX009 (ip), vehicle: saline): 98 % of control
T/C (dose: 5.0 mg/kg/injection, schedule: Q01DX009 (ip), vehicle: saline): 103 % of control
T/C (dose: 6.25 mg/kg/injection, schedule: Q04DX003 (ip), vehicle: saline): 101 % of control
T/C (dose: 8.0 mg/kg/injection, schedule: Q01DX009 (ip), vehicle: saline): 93 % of control
T/C (dose: 10.0 mg/kg/injection, schedule: Q01DX009 (ip), vehicle: saline): 116 % of control
T/C (dose: 10.0 mg/kg/injection, schedule: Q04DX003 (ip), vehicle: saline): 115 % of control
T/C (dose: 12.5 mg/kg/injection, schedule: Q04DX003 (ip), vehicle: saline): 110 % of control
T/C (dose: 18.75 mg/kg/injection, schedule: Q01DX001 (ip), vehicle: saline): 107 % of control
T/C (dose: 20.0 mg/kg/injection, schedule: Q01DX009 (ip), vehicle: saline): 95 % of control
T/C (dose: 37.5 mg/kg/injection, schedule: Q01DX001 (ip), vehicle: saline): 117 % of control
T/C (dose: 50.0 mg/kg/injection, schedule: Q04DX003 (ip), vehicle: saline): 121 % of control
